# Several values for one entry are separate records, joined by “and”; a condition that tells them apart may be missing. Equal entries are not always repeated.
# Assays:
# [1] = In vivo pharmacokinetics studies after gavage; details: male, SD, rat, plasma, po
# Protocol: The pharmacokinetic parameters were calculated by the statistical moment method of non-atrioventricular model.
# Blood samples (0.5 mL) were collected from the retro-orbital venous plexus at appropriate time points and placed in collection tubes with anticoagulants. Plasma was obtained from the blood samples by centrifuged (4000 rpm, 10 min, 4 °C) and stored at −20 °C until analysis. 400 µL of acetonitrile was added to 200 µL of rat plasmas, and vortexed for 90 s and finally centrifuged at 12,000 rpm for about 10 min. 20 µL of the supernatant was used to determinate the concentration of berberine in plasma by using the liquid chromatography-mass spectrometry (Waters XBridge, Waters, USA).
# The maximum peak concentration (Cmax) and the time of reaching Cmax (Tmax) can be obtained from the measured data. The area under the concentration-time curve (AUC0→t) was estimated by the trapezoidal summation. The area under the curve from time zero to infinity (AUC0→∞) was also determined..
# [2] = no reference given; cited from earlier work
# [3] = target: T1, TBK1 (Mus musculus, UniProt Q9WUN2); assay: TBK1 activity assay in eWAT; type: in vivo, mice; design: The adipose tissue was ultrasound-crushed in PBS buffer solution (1:9 w/v) to prepare the tissue homogenate; from tissue; host or cells: epididymal white adipose tissue (eWAT) and brown adipose tissue (BAT) of C57BLKS WT and db/db mice; details: for the expression of TBK1 in eWAT of db/db mice: Figure 6c, individual values
# T1 sequence (Q9WUN2 1-729): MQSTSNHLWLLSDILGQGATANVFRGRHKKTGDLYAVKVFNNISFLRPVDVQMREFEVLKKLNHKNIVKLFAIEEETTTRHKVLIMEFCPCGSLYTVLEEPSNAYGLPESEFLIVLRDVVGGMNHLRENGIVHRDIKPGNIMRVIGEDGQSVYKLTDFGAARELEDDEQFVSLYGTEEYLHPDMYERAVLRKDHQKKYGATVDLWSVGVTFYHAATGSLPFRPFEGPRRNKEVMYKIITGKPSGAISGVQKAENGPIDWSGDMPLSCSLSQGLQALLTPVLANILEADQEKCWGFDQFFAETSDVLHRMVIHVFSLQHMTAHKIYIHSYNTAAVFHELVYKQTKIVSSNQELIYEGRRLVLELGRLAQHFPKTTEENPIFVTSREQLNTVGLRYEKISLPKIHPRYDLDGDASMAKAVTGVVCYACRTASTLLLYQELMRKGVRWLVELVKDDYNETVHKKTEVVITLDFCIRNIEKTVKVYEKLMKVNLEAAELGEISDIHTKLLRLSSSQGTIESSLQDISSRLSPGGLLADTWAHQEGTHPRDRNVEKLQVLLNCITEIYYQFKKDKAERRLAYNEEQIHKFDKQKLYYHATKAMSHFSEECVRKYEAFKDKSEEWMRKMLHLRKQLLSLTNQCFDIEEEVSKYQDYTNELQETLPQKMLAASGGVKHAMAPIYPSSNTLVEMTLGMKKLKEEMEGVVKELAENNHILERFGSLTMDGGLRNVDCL
# Protocol: The adipose tissue was ultrasound-crushed in PBS buffer solution (1:9 w/v) to prepare the tissue homogenate. The tissue homogenate was centrifuged at 5000 × g for 10 min, and the supernatant was taken for detection. Briefly, samples or standards were added to the microplates pre-coated with IKKε antibody or TBK1 antibody. Then horseradish peroxidase (HRP) labeled antibody was added and incubated at 37 °C for 60 min. After thorough washing, the 3,3′,5,5′-tetramethylbenzidine (TMB) substrate was used for color development, and the absorbance (OD value) was determined at 450 nm.
# [4] = target: T2, IKKε (Mus musculus, UniProt Q9R0T8); assay: IKKε kinase activity in TNF-α induced 3T3-L1 adipocytes; type: cell-based, Murine; design: endogenous in cells; host or cells: differentiated 3T3-L1 adipocytes; IKKε kinase activity: unit not given here; details: for IKKε kinase activity: Figure 7h, replicates
# T2 sequence (Q9R0T8 1-717): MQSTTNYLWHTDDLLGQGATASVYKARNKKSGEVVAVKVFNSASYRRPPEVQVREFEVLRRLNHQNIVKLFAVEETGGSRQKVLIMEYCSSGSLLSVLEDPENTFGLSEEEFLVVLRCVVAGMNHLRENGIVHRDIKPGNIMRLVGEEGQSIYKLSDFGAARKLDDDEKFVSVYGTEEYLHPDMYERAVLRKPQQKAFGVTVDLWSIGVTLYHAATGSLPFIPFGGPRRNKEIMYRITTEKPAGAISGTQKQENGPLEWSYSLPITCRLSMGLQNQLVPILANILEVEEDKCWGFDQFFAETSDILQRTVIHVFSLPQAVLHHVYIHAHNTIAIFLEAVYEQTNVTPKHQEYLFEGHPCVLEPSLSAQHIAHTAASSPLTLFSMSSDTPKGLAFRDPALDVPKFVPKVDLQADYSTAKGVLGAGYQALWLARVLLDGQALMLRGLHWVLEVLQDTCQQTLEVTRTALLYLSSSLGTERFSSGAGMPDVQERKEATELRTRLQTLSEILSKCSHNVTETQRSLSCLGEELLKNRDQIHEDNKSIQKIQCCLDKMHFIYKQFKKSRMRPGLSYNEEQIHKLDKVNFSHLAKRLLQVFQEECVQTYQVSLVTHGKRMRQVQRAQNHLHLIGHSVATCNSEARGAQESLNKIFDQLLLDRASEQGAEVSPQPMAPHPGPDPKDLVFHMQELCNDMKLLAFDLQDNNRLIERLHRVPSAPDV
SMILES,Tmax [1] [min],Oral bioavailability [2],the expression of TBK1 in eWAT of db/db mice ([3]; db/db+BJ 75mg/kg),the expression of TBK1 in eWAT of db/db mice ([3]; db/db+BJ 150mg/kg),"TBK1 kinase activity in eWAT ([3]; db/db mice, both doses of BJ (75 and 150 mg/kg))",IKKε kinase activity ([4]; TNF-α(50ng/ml)+3μM BJ),IKKε kinase activity ([4]; TNF-α(50ng/ml)+10μM BJ),"IKKε expression level / kinase activity ([4]; TNF-α induced 3T3-L1 adipocytes, BJ treatment for 24 h)"
"COc1ccc2cc3[n+](cc2c1OC)CCc1cc2c(cc1-3)OCO2 [BBR, Berberine chloride dihydrate]",30 ± 4.8,below 1%,–,–,–,–,–,–
"CC(C)Cc1ccc(C(C)C(=O)[O-])cc1.COc1ccc2cc3[n+](cc2c1OC)CCc1cc2c(cc1-3)OCO2.O.O.O.O [BJ, berberine-ibuprofen]",–,–,0.538 U/g and 0.576 U/g and 0.532 U/g and 0.587 U/g and 0.53 U/g,0.413 U/g and 0.391 U/g and 0.35 U/g and 0.361 U/g and 0.451 U/g and 0.379 U/g,significantly reduced,47.3662 and 40.5834 and 38.8273 and 37.402 and 43.0522 and 46.31,22.5765 and 26.127 and 25.2998 and 23.4546 and 23.7218 and 26.8142,markedly decreased

# — PMC9374667 (Communications Biology, 2022)
